In PMC11417357, “The SAVED domain of the type III CRISPR protease CalpL is a ring nuclease” (Nucleic Acids Research, 2024):
Numbering of substitutions follows the chain as printed. Where two headings read alike, the source gives them in different places.

What was measured:
Assay in all cases: SPR, single-cycle kinetics, […] model, CalpL amine-coupled to CM5 chip
Type in all cases: binding
Conditions in all cases: 20 mM Tris pH 8, 50 mM NaCl, 0.05% Tween20, 25 °C
CalpL [1] = biological target: T1, CalpL (Sulfurihydrogenibium sp. YO3AOP1, UniProt Z9OF32SUC9, H345A)
T1 construct: codon-optimized CalpL, Lon protease domain plus C-terminal SAVED domain; N-terminal 10xHis-TEV tag removed by TEV protease; expressed in E. coli BL21(DE3); monomer that oligomerizes with cA4
T1 sequence (Z9OF32SUC9 2-496 H345A): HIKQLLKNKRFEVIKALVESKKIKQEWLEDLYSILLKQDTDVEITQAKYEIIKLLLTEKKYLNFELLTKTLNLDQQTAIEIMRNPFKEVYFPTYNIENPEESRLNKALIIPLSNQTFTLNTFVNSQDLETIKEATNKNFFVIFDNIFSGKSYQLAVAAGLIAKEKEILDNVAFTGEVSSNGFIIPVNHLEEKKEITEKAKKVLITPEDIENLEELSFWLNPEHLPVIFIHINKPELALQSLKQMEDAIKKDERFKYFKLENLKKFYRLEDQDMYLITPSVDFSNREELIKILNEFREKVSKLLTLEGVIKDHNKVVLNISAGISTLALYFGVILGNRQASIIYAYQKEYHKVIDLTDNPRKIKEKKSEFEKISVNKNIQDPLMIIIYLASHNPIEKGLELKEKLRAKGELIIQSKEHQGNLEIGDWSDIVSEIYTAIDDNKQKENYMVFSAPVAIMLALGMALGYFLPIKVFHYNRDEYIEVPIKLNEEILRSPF

CalpL [2] = biological target: T2, CalpL (Sulfurihydrogenibium sp. YO3AOP1, UniProt Z9OF32SUC9)
T2 construct: codon-optimized CalpL, Lon protease domain plus C-terminal SAVED domain; N-terminal 10xHis-TEV tag removed by TEV protease; expressed in E. coli BL21(DE3); monomer that oligomerizes with cA4
T2 sequence (Z9OF32SUC9 2-496): T1 sequence (Z9OF32SUC9 2-496 H345A) with A344H

CalpL [3] = biological target: T3, CalpL (Sulfurihydrogenibium sp. YO3AOP1, UniProt Z9OF32SUC9, H474A)
T3 construct: codon-optimized CalpL, Lon protease domain plus C-terminal SAVED domain; N-terminal 10xHis-TEV tag removed by TEV protease; expressed in E. coli BL21(DE3); monomer that oligomerizes with cA4
T3 sequence (Z9OF32SUC9 2-496 H474A): T1 sequence (Z9OF32SUC9 2-496 H345A) with A344H, H473A

CalpL [4] = biological target: T2, CalpL; remark: listed apart in the source
CalpL [5] = biological target: T4, CalpL (Sulfurihydrogenibium sp. YO3AOP1, UniProt Z9OF32SUC9, H392A)
T4 construct: codon-optimized CalpL, Lon protease domain plus C-terminal SAVED domain; N-terminal 10xHis-TEV tag removed by TEV protease; expressed in E. coli BL21(DE3); monomer that oligomerizes with cA4
T4 sequence (Z9OF32SUC9 2-496 H392A): T1 sequence (Z9OF32SUC9 2-496 H345A) with A344H, H391A

CalpL [6] = biological target: T5, CalpL (Sulfurihydrogenibium sp. YO3AOP1, UniProt Z9OF32SUC9, R361A)
T5 construct: codon-optimized CalpL, Lon protease domain plus C-terminal SAVED domain; N-terminal 10xHis-TEV tag removed by TEV protease; expressed in E. coli BL21(DE3); monomer that oligomerizes with cA4
T5 sequence (Z9OF32SUC9 2-496 R361A): T1 sequence (Z9OF32SUC9 2-496 H345A) with A344H, R360A

CalpL [7] = biological target: T6, CalpL (Sulfurihydrogenibium sp. YO3AOP1, UniProt Z9OF32SUC9, R361E)
T6 construct: codon-optimized CalpL, Lon protease domain plus C-terminal SAVED domain; N-terminal 10xHis-TEV tag removed by TEV protease; expressed in E. coli BL21(DE3); monomer that oligomerizes with cA4
T6 sequence (Z9OF32SUC9 2-496 R361E): T1 sequence (Z9OF32SUC9 2-496 H345A) with A344H, R360E

| Compound | Kd (CalpL [1]) | Kd (CalpL [3]) | Kd (CalpL [5]) | further results |
| --- | --- | --- | --- | --- |
| Nc1ncnc2c1ncn2[C@@H]1O[C@@H]2COP(=O)(O)O[C@H]3[C@@H](F)[C@H](n4cnc5c(N)ncnc54)O[C@@H]3COP(=O)(O)O[C@H]3[C@@H](F)[C@H](n4cnc5c(N)ncnc54)O[C@@H]3COP(=O)(O)O[C@H]3[C@@H](F)[C@H](n4cnc5c(N)ncnc54)O[C@@H]3COP(=O)(O)O[C@H]2[C@H]1F [2′F-cA4] | 18.9 nM | 0.224 nM |  | Kd (CalpL [2]; non-hydrolysable analogue, read-out: KD): 1 nM |
| Nc1ncnc2c1ncn2[C@@H]1O[C@H](COP(=O)(O)O[C@H]2[C@@H](O)[C@H](n3cnc4c(N)ncnc43)O[C@@H]2CO)[C@@H](OP(=O)(O)O)[C@H]1O [A2] |  |  |  | KD (CalpL [4]): decrease in affinity of CalpL towards A4 and A2 compared to cA4 |
| Nc1ncnc2c1ncn2[C@@H]1O[C@H](COP(=O)(O)O[C@H]2[C@@H](O)[C@H](n3cnc4c(N)ncnc43)O[C@@H]2COP(=O)(O)O[C@H]2[C@@H](O)[C@H](n3cnc4c(N)ncnc43)O[C@@H]2COP(=O)(O)O[C@H]2[C@@H](O)[C@H](n3cnc4c(N)ncnc43)O[C@@H]2CO)[C@@H](OP(=O)(O)O)[C@H]1O [A4] |  |  | 1.72 nM | Kd (CalpL [2]; apparent, read-out: apparent KD): 158 nM |
| Nc1ncnc2c1ncn2[C@@H]1O[C@@H]2COP(=O)(O)O[C@H]3[C@@H](O)[C@H](n4cnc5c(N)ncnc54)O[C@@H]3COP(=O)(O)O[C@H]3[C@@H](O)[C@H](n4cnc5c(N)ncnc54)O[C@@H]3COP(=O)(O)O[C@H]3[C@@H](O)[C@H](n4cnc5c(N)ncnc54)O[C@@H]3COP(=O)(O)O[C@H]2[C@H]1O [cA4] | 68.7 nM | 48.6 nM | 0.0308 nM | Kd (CalpL [6]): 0.87 nM; Kd (CalpL [7]): 1 nM; Kd (CalpL [2]; apparent: ligand cleaved on the chip, depends on immobilization density, read-out: apparent KD): 50 nM |
